Assays:
HL-60(TB) (Leukemia) = assay: NCI-60 screen (SRB, 48 h); assay type: cell-based; conditions: Homo sapiens
Colon Cancer subpanel = assay: NCI-60 screen, subpanel; conditions: Homo sapiens
U251 (CNS cancer) = assay: NCI-60 screen (SRB, 48 h); conditions: Homo sapiens
Breast cancer subpanel = assay: NCI-60 screen, subpanel; conditions: Homo sapiens
ACHN (Renal cancer) = assay: NCI-60 screen (SRB, 48 h); conditions: Homo sapiens
RXF 393 (Renal cancer) = assay: NCI-60 screen (SRB, 48 h); conditions: Homo sapiens
LOX IMVI (Melanoma) = assay: NCI-60 screen (SRB, 48 h); assay type: cell-based; conditions: Homo sapiens
SNB-75 (CNS cancer) = assay: NCI-60 screen (SRB, 48 h); conditions: Homo sapiens
786-0 (Renal cancer) = assay: NCI-60 screen (SRB, 48 h); conditions: Homo sapiens
EKVX (NSC lung cancer) = assay: NCI-60 screen (SRB, 48 h); conditions: Homo sapiens
OVCAR-4 (Ovarian cancer) = assay: NCI-60 screen (SRB, 48 h); assay type: cell-based; conditions: Homo sapiens
[1] = test system: NCI-H460 (NSC lung cancer); assay: NCI-60 screen (SRB, 48 h); conditions: Homo sapiens
M14 (Melanoma) = assay: NCI-60 screen (SRB, 48 h)
SK-OV-3 (Ovarian cancer) = assay: NCI-60 screen (SRB, 48 h); conditions: Homo sapiens
SR (Leukemia) = assay: NCI-60 screen (SRB, 48 h); assay type: cell-based
HOP-92 (NSC lung cancer) = assay: NCI-60 screen (SRB, 48 h); conditions: Homo sapiens
Ovarian Cancer subpanel = assay: NCI-60 screen, subpanel; conditions: Homo sapiens
SK-MEL-28 (Melanoma) = assay: NCI-60 screen (SRB, 48 h)
[2] = test system: MDA-MB-468 (Breast cancer); assay: cells; conditions: Homo sapiens
[3] = test system: NCI/ADR-RES (Ovarian cancer); assay: NCI-60 screen (SRB, 48 h); conditions: Homo sapiens
T-47D (Breast cancer) = assay: NCI-60 screen (SRB, 48 h); conditions: Homo sapiens, T47D
RPMI-8226 (Leukemia) = assay: NCI-60 screen (SRB, 48 h); conditions: Homo sapiens
MOLT-4 (Leukemia) = assay: NCI-60 screen (SRB, 48 h); conditions: Homo sapiens
SW-620 (Colon cancer) = assay: NCI-60 screen (SRB, 48 h); conditions: Homo sapiens
[4] = read-out: LC50 (the source's name)

In the case of `CC1(C)CC[C@]2(CO)CC[C@]3(C)C(=CC[C@@H]4[C@@]5(C)CCCNC(C)(C)[C@@H]5CC[C@]43C)[C@@H]2C1` [Compound 3, azepanoerythrodiol], the GI50 (HL-60(TB) (Leukemia)) is reported as 1.95 µM, the CC50 (HL-60(TB) (Leukemia); [4]) is reported as > 100 µM and the IC (TGI) (Colon Cancer subpanel; 48 h, read-out: TGI MG_MID) is reported as 3.3 µM. For the same compound, the GI50 (Colon Cancer subpanel; read-out: GI50 MG_MID) was 1.99 µM, the CC50 (Colon Cancer subpanel; read-out: LC50 MG_MID) was 12.4 µM and the GI50 (U251 (CNS cancer); U-251) was 1.94 µM. For the same compound, the IC (TGI) (U251 (CNS cancer); U-251, 48 h, read-out: TGI) was 4.18 µM, the CC50 (U251 (CNS cancer); U-251, read-out: LC50) was 9 µM and the IC (TGI) (Breast cancer subpanel; 48 h, read-out: TGI MG_MID) was 14.6 µM. It also gave a GI50 (Breast cancer subpanel; read-out: GI50 MG_MID) of 3.12 µM, a CC50 (Breast cancer subpanel; read-out: LC50 MG_MID) of 43.6 µM and a GI50 (ACHN (Renal cancer)) of 3.44 µM. It also gave an IC (TGI) (ACHN (Renal cancer); 48 h, read-out: TGI) of 11.5 µM, a CC50 (ACHN (Renal cancer); read-out: LC50) of 38.3 µM and a GI50 (RXF 393 (Renal cancer); RXF 393) of 2.88 µM. For the same compound, the IC (TGI) (RXF 393 (Renal cancer); RXF 393, 48 h, read-out: TGI) was 11.7 µM, the CC50 (RXF 393 (Renal cancer); RXF 393, read-out: LC50) was 48.6 µM and the IC (TGI) (LOX IMVI (Melanoma); 48 h) was 3.19 µM. The activity at 10 µM (LOX IMVI (Melanoma); 48 h, 1 dose 10 µM, read-out: Growth % of the Most Sensitive Cell Lines) was -88.2%, the GI50 (LOX IMVI (Melanoma); read-out: GI50) was 1.68 µM and the CC50 (LOX IMVI (Melanoma); [4]) was 6.05 µM. For the same compound, the GI50 (SNB-75 (CNS cancer); SNB-75) was 9.84 µM, the IC (TGI) (SNB-75 (CNS cancer); SNB-75, 48 h, read-out: TGI) was 2.17 µM and the CC50 (SNB-75 (CNS cancer); SNB-75, read-out: LC50) was 47.1 µM. For the same compound, the GI50 (786-0 (Renal cancer); 786-0) was 2.25 µM, the IC (TGI) (786-0 (Renal cancer); 786-0, 48 h, read-out: TGI) was 4.84 µM and the CC50 (786-0 (Renal cancer); 786-0, read-out: LC50) was 12.7 µM. The GI50 (EKVX (NSC lung cancer)) was 4.04 µM, the IC (TGI) (EKVX (NSC lung cancer); 48 h, read-out: TGI) was 20.1 µM and the CC50 (EKVX (NSC lung cancer); read-out: LC50) was > 100 µM. It also gave an IC (TGI) (OVCAR-4 (Ovarian cancer); OVCAR-4, 48 h) of 17.5 µM, a GI50 (OVCAR-4 (Ovarian cancer); OVCAR-4, read-out: GI50) of 4.48 µM and a CC50 (OVCAR-4 (Ovarian cancer); OVCAR-4, read-out: LC50 (the source's name)) of 45.2 µM. The GI50 ([1]; NCI-H460) was 1.92 µM, the IC (TGI) ([1]; NCI-H460, 48 h, read-out: TGI) was 3.8 µM and the CC50 ([1]; NCI-H460, read-out: LC50) was 7.56 µM. The GI50 (M14 (Melanoma); Homo sapiens, M14) was 2.04 µM, the IC (TGI) (M14 (Melanoma); Homo sapiens, M14, 48 h, read-out: TGI) was 3.87 µM and the CC50 (M14 (Melanoma); Homo sapiens, M14, read-out: LC50) was 7.34 µM. The “Growth % of the Most Sensitive Cell Lines” value (M14 (Melanoma); M14, 1 dose 10 µM) was −82.21%, the GI50 (SK-OV-3 (Ovarian cancer); SK-OV-3) was 14.1 µM and the IC (TGI) (SK-OV-3 (Ovarian cancer); SK-OV-3, 48 h, read-out: TGI) was 28.9 µM. For the same compound, the CC50 (SK-OV-3 (Ovarian cancer); SK-OV-3, read-out: LC50) was 59.2 µM, the TGI (SR (Leukemia)) was > 100 µM and the GI50 (SR (Leukemia); Homo sapiens) was 2.22 µM. For the same compound, the CC50 (SR (Leukemia); Homo sapiens, read-out: LC50 (the source's name)) was > 100 µM, the GI50 (HOP-92 (NSC lung cancer); HOP-92) was 1.36 µM and the IC (TGI) (HOP-92 (NSC lung cancer); HOP-92, 48 h, read-out: TGI) was 30.7 µM. The CC50 (HOP-92 (NSC lung cancer); HOP-92, read-out: LC50) was 6.92 µM, the IC (TGI) (Ovarian Cancer subpanel; 48 h, read-out: TGI MG_MID) was 19.1 µM and the GI50 (Ovarian Cancer subpanel; read-out: GI50 MG_MID) was 7.75 µM. For the same compound, the CC50 (Ovarian Cancer subpanel; read-out: LC50 MG_MID) was 45.6 µM, the GI50 (SK-MEL-28 (Melanoma); Homo sapiens, SK-MEL-28) was 1.7 µM and the IC (TGI) (SK-MEL-28 (Melanoma); Homo sapiens, SK-MEL-28, 48 h, read-out: TGI) was 3.14 µM. For the same compound, the CC50 (SK-MEL-28 (Melanoma); Homo sapiens, SK-MEL-28, read-out: LC50) was 5.78 µM, the “Growth % of the Most Sensitive Cell Lines” value (SK-MEL-28 (Melanoma); SK-MEL-28, 1 dose 10 µM) was −81.53% and the GI50 ([2]; MDA-MB-468) was 1.79 µM. The IC (TGI) ([2]; MDA-MB-468, 48 h, read-out: TGI) was 3.74 µM, the CC50 ([2]; MDA-MB-468, read-out: LC50) was 7.81 µM and the GI50 [3] was 10.2 µM. The IC (TGI) ([3]; 48 h, read-out: TGI) was 24 µM, the CC50 ([3]; read-out: LC50) was 56.3 µM and the GI50 (T-47D (Breast cancer)) was 4.08 µM. For the same compound, the IC (TGI) (T-47D (Breast cancer); 48 h, read-out: TGI) was 16.3 µM, the CC50 (T-47D (Breast cancer); read-out: LC50) was 48.6 µM and the GI50 (RPMI-8226 (Leukemia); RPMI-8226) was 2.71 µM. The IC (TGI) (RPMI-8226 (Leukemia); RPMI-8226, 48 h, read-out: TGI) was 10.1 µM, the CC50 (RPMI-8226 (Leukemia); RPMI-8226, read-out: LC50) was > 100 µM and the GI50 (MOLT-4 (Leukemia); MOLT-4) was 2.5 µM. The CC50 (MOLT-4 (Leukemia); MOLT-4, read-out: LC50) was > 100 µM, the GI50 (SW-620 (Colon cancer); SW-620) was 1.91 µM and the IC (TGI) (SW-620 (Colon cancer); SW-620, 48 h, read-out: TGI) was 4 µM. For the same compound, the CC50 (SW-620 (Colon cancer); SW-620, read-out: LC50) was 8.35 µM.

Reference: paper PMC7914897, “Cytotoxic Potential of a-Azepano- and 3-Amino-3,4-SeCo-Triterpenoids” (International Journal of Molecular Sciences, 2021)
